SMILES strings stand for the structures. Counter-ions that a name gives are not always drawn. Like-named read-outs stand apart in the source and are kept apart here.

The nature of the test: MIC of test compounds against various organisms. It is filed as cell-based, S. aureus, S. pneumoniae, H. influenzae, E.faecalis. On the procedure: The MIC (μg/ml) of test compounds against various organisms was determined: S. aureus Oxford, S. aureus WCUH29, S. pneumoniae 1629, S. pneumoniae N1387, S. pneumoniae ERY 2, H. influenzae Q1, E.faecalis 1.
[1] abbreviates: against one or more of S. aureus Oxford, S. aureus WCUH29, S. pneumoniae 1629, S. pneumoniae N1387, S. pneumoniae ERY 2, H. influenzae Q1, E.faecalis 1 (gram positive and gram negative bacteria), read-out: MIC.

Take `COc1ccc2nccc([C@@H](O)CN3CCC(NCc4ccc5c(c4)NC(=O)C(C)S5)CC3)c2c1` (mixture of isomers) [Example 21, 6-({1-[(R)-2-Hydroxy-2-(6-methoxy-quinolin-4-yl)-ethyl)-piperidin-4-ylamino}-methyl)-2-(R/S)-methyl-4H-benzo[1,4]thiazin-3-one dioxalate]: the MIC was at most 2 µg/mL.
Same read-out and setting: as for `COc1ccc2nccc([C@@H](O)CN3CCC(NCc4ccc5c(c4)NC(=O)CO5)CC3)c2c1` [Example 5, 6-({1-[(R)-2-Hydroxy-2-(6-methoxy-quinolin-4-yl)-ethyl]-piperidin-4-ylamino}-methyl)-4H-benzo[1,4]oxazin-3-one dioxalate], the figure is at most 2 µg/mL.
Turning to `COc1ccc2nccc([C@@H](O)CN3CCC(NCc4ccc5c(c4)NC(=O)CS5)CC3)c2n1` [Example 16, 6-({1-[(R)-2-Hydroxy-2-(6-methoxy-[1,5]naphthyridin-4-yl)-ethyl]-piperidin-4-ylamino}-methyl)-4H-benzo[1,4]thiazin-3-one dioxalate], the MIC is at most 0.125 µg/mL.
As to `COc1ccc2nccc([C@@H](O)CN3CCC(NS(=O)(=O)c4ccc5c(c4)NC(=O)CCS5)CC3)c2n1` [Example 17, 4-Oxo-2,3,4,5-tetrahydro-benzo[b][1,4]thiazepine-7-sulfonic acid {1-[(R)-2-hydroxy-2-(6-methoxy-[1,5]naphthyridin-4-yl)-ethyl]-piperidin-4-yl}-amide oxalate], the MIC was at most 2 µg/mL.
On to `COc1ccc2nccc([C@@H](O)CN3CCC(NCc4cc5c(cc4[N+](=O)[O-])OCO5)CC3)c2c1.O=C(O)C(=O)O.O=C(O)C(=O)O` [Example 18, (R)-1-(6-Methoxy-quinolin-4-yl)-2-{4-[(6-nitro-benzo[1,3]dioxol-5-ylmethyl)-amino]-piperidin-1-yl}-ethanol dioxalate], for which the MIC under setting [1] is at most 0.125 µg/mL.
For `COc1ccc2nccc([C@@H](O)CN3CCC(NCc4ccc5c(n4)OCCO5)CC3)c2c1` [Example 19, (R)-2-{4-[(2,3-Dihydro-[1,4]dioxino[2,3-b]pyridin-6-ylmethyl)-amino]-piperidin-1-yl}-1-(6-methoxy-quinolin-4-yl)-ethanol dioxalate], the MIC is at most 0.125 µg/mL.
With `COc1ccc2nccc([C@@H](O)CN3CCC(NCc4cnc5c(c4)NC(=O)CS5)CC3)c2c1` [Example 20, 7-({1-[(R)-2-Hydroxy-2-(6-methoxy-quinolin-4-yl)-ethyl]-piperidin-4-ylamino}-methyl)-1-H-pyrido[2,3-b][1,4]thiazin-2-one dioxalate], under setting [1], the MIC is at most 2 µg/mL.

Source of the values: US7205408B2, “Quinolines and nitrogenated derivative thereof substituted in 4-position by a piperidine-containing moiety and their use as antibacterial agents” (priority 1920, dated 2007).
